Data on one compound can be found in paper PMC4877593, “Design and Synthesis of Potent in Vitro and in Vivo Anticancer Agents Based on 1-(3′,4′,5′-Trimethoxyphenyl)-2-Aryl-1H-Imidazole” (Scientific Reports, 2016).

One test deals with HeLa cells. Kind of test: Cell cycle distribution by flow cytometry (PI), HeLa. The class given is cell-based, human. On the procedure:
The effects of a 24 h treatment with different concentrations of 4o on cell cycle progression in Jurkat, and HeLa cells were determined by flow cytometry, following propidium iodide (PI) staining of the cells (Fig. 4, Panels A,B). […] In the HeLa cells, the G2/M block was accompanied by a significant reduction of both G1 and S phase cells. In order to determine whether 4o was able to block cells at the mitotic phase (M), cells were stained with an immunofluorescent antibody to p-histone H3, a well known mitotic marker, as well as PI, and analyzed by flow cytometry. As shown in Fig. 4 (Panel C), in which representative histograms are presented, Hela cells arrested in M phase by treatment with 4o are readily distinguished from G2 cells by the higher level of p-histone H3. In particular, treatment with 4o induced an increase in the percentage of mitotic cells from the 2% observed in untreated cells to about 30% with both 50 and 100 nM 4o at 24 h (Fig. 4, Panel D).
5 × 10^5 HeLa or Jurkat cells were treated with different concentrations of the test compounds for 24 h. After the incubation period, the cells were collected, centrifuged, and fixed with ice-cold ethanol (70%). […] Samples were analyzed on a Cytomic FC500 flow cytometer (Beckman Coulter). DNA histograms were analyzed using MultiCycle for Windows (Phoenix Flow Systems).

Test [1] has as its system HeLa. Kind of test: Mitochondrial membrane potential (JC-1), HeLa. The conditions noted are these: HeLa, 50, 100 and 250 nM; time- and concentration-dependent. The format is cell-based, human. On the procedure:
Mitochondria play an essential role in the propagation of apoptosis. It is well established that, at an early stage, apoptotic stimuli alter the mitochondrial transmembrane potential (Δψmt). Δψmt was monitored by the fluorescence of the dye JC-1. […] This occurred in a time- and concentration-dependent fashion, and, in both cell lines, a significant increase was observed after a 6 h treatment. The disruption of Δψmt is associated with the appearance of annexin-V positivity in the treated cells when they are in an early apoptotic stage. […] Cells were treated with the indicated concentration of compound for 24 or 48 h and then stained with the fluorescent probe JC-1 for analysis of mitochondrial potential or H2-DCFDA for the evaluation of ROS levels. Cells were then analyzed by flow cytometry as described in the experimental section.

The next test has as its system HL-60. Kind of test: In vitro antiproliferative activity (MTT), HL-60. The class given is cell-based. As to conditions: Homo sapiens, tumor cell proliferation, 72 h, mean ± SE.
Another test concerns bovine brain tubulin. Put plainly: Inhibition of tubulin polymerization (turbidimetry). The class given is biochemical. On the procedure: To evaluate the effect of the compounds on tubulin assembly in vitro[22], varying concentrations of compounds were preincubated with 10 μM bovine brain tubulin in glutamate buffer at 30 °C and then cooled to 0 °C. After addition of 0.4 mM GTP (final concentration), the mixtures were transferred to 0 °C cuvettes in a recording spectrophotometer equipped with an electronic temperature controller and warmed to 30 °C. Tubulin assembly was followed turbidimetrically at 350 nm. […] The ability of the test compounds to inhibit colchicine binding to tubulin was measured as described, except that the reaction mixtures contained 1 μM tubulin, 5 μM [^3H]colchicine and 1 or 5 μM test compound.

The subject of the next test is RS4;11. Put plainly: In vitro antiproliferative activity (MTT), RS4;11. The format is cell-based. As to conditions: Homo sapiens, tumor cell proliferation, 72 h, mean ± SE.
Test [2] has as its system HeLa. Kind of test: In vitro antiproliferative activity (MTT), HeLa. The conditions noted are these: Homo sapiens, tumor cell proliferation, 72 h, mean ± SE. The format is cell-based. As for the experimental part:
(§1) Human T-cell leukemia (CCRF-CEM and Jurkat) and human B-cell leukemia (SEM) cells were grown in RPMI-1640 medium (Gibco, Milano, Italy). Breast adenocarcinoma (MCF7), human cervix carcinoma (HeLa), and human colon adenocarcinoma (HT-29) cells were grown in DMEM medium (Gibco, Milano, Italy), all supplemented with 115 units/mL penicillin G (Gibco, Milano, Italy), 115 μg/mL streptomycin (Invitrogen, Milano, Italy), and 10% fetal bovine serum (Invitrogen, Milano, Italy). Stock solutions (10 mM) of the different compounds were obtained by dissolving them in dimethyl sulfoxide (DMSO). Individual wells of a 96-well tissue culture microtiter plate were inoculated with 100 μL of complete medium containing 8 × 10^3 cells. The plates were incubated at 37 °C in a humidified 5% CO2 incubator for 18 h prior to the experiments. After medium removal, 100 μL of fresh medium containing the test compound at different concentrations was added to each well in triplicate and incubated at 37 °C for 72 h. The percentage of DMSO in the medium never exceeded 0.25%. This was also the maximum DMSO concentration in all cell-based assays described below. […] Different concentrations of the test compounds were added, and viability was determined 72 h later by the MTT test. For cytotoxicity evaluations in resting PBL cultures, non-adherent cells were resuspended (5 × 10^5 cells/mL) and treated for 72 h with the test compounds, as described above.

The test system of test [3] is HeLa. Kind of test: Annexin-V/PI apoptosis assay, HeLa. The class given is cell-based, human. As to conditions: 24 h, lowest concentration used (50 nM). On the procedure: To evaluate the induction of apoptosis by compound 4o in two cell lines (HeLa and Jurkat), we used an annexin-V/PI assay. Dual staining for annexin-V and with PI permits discrimination between live cells (annexin-V^−/PI^−), early apoptotic cells (annexin-V^+/PI^−), late apoptotic cells (annexin-V^+/PI^+) and necrotic cells (annexin-V^−/PI^+).
Cell death was determined by flow cytometry of cells double stained with annexin V/FITC and PI. The Coulter Cytomics FC500 (Beckman Coulter) was used to measure the surface exposure of phosphatidyl serine on apoptotic cells according to the manufacturer’s instructions (Annexin-V Fluos, Roche Diagnostics).

Another test relates to HT-29. Put plainly: In vitro antiproliferative activity (MTT), HT-29. The format is cell-based. As to conditions: Homo sapiens, tumor cell proliferation, 72 h, mean ± SE. As for the experimental part: as §1
The subject of another test is Jurkat. Put plainly: ROS production (H2-DCFDA), Jurkat. The format is cell-based, human. The conditions noted are these: in comparison with control cells. On the procedure: Figure 7 Assessment of mitochondrial membrane potential (Δψmt) and production of ROS after treatment of HeLa (Panels A,B) or Jurkat (Panels C,D) cells with compound 4o. Cells were treated with the indicated concentration of compound for 24 or 48 h and then stained with the fluorescent probe JC-1 for analysis of mitochondrial potential or H2-DCFDA for the evaluation of ROS levels. Cells were then analyzed by flow cytometry as described in the experimental section.
It is also well known that dissipation of mitochondrial potential is associated with mitochondrial production of ROS[38]. Superoxide anion is produced by mitochondria due to a shift from the normal 4-electron reduction of O2 to a 1-electron reduction when cytochrome c is released from mitochondria upon apoptosis. Therefore, we investigated whether ROS production increased after treatment with compound 4o. We utilized the dye 2,7-dichlorodihydrofluorescein diacetate (H2-DCFDA), which is oxidized to the fluorescent compound dichlorofluorescein (DCF) upon ROS induction.

Where two headings read alike, the source gives them in different places.

In the case of `CCOc1ccc(-c2nccn2-c2cc(OC)c(OC)c(OC)c2)cc1Cl` [Compound 4o, 2-(3′-Chloro-4′-ethoxyphenyl)-1-(3′,4′,5′-trimethoxyphenyl)-1H-imidazole], the “lowest concentration with a rise in G2/M cells” value in the test with HeLa cells (24 h treatment) turned out to be 25 nM. In addition, in the test with HeLa cells (highest concentration, 24 h), the “cells arrested in G2/M” value is given as “more than 80%”. Also, the “percentage of cells with low Δψmt (JC-1)” value in the test on HeLa [1] is “remarkable increase”. Besides, the IC50 in the test with HL-60 was 1.8 ± 0.6 nM; with bovine brain tubulin (repeated beside the calculated energies, read-out: inhibition of tubulin polymerization IC50 (Table 4)) it was 870 nM; in the test with bovine brain tubulin (tubulin at 10 μM, 20 min incubation, read-out: Tubulin assembly IC50 ± S.D.) it was 870 nM; in the test with RS4;11 it was 1.2 ± 0.7 nM; in the test with HeLa [2] it was 3.8 ± 0.7 nM; in the test on HT-29, 0.4 ± 0.06 nM. Further, the annexin-V positive cells entry in the test with HeLa [3] is reported as “significant accumulation of annexin-V positive cells”. The “ROS production (H2-DCFDA)” value in the test on Jurkat is “induced the production of large amounts of ROS”.
